The values below come from patent publication EP0450480B1, “Somatostatin Analogues” (The Administrators of The Tulane Educational Fund, priority 1990, dated 1991).

Marks after values point to notes of the source that are not given here. Square brackets hold non-standard residues; d marks the D form. Ends that are not written are not given here.

For data set [1], the system named is human pancreatic MiaPaCa cancer cell line. Briefly: Inhibition of 3H-thymidine incorporation into DNA, MiaPaCa cells. The format is cell-based. The procedure:
The ability of peptides of Formula I to inhibit incorporation of [³H]thymidine into DNA of monolayer cultures the small cell lung cancer line H-69 and MiaPaCa cell line is assayed as described by Kern et al. (Cancer Res., 45, 5436 (1985).
1x10⁵ cells are plated with DME media containing 10% fetal calf serum (FCS) on Day 0. After 24 hours media is removed and replaced with DME media without serum and incubated at 37°C for 2 days. Media was then removed and replaced with DME media containing 5% FCS with or without somatostatin analog. Media with peptides was changed daily for 4 days. On day 4, 1 »Ci ³H-thymidine added and incubated an additional 17 hrs. Media is then removed and cells recovered by trypsination. DNA extracted with 1 N perchloric acid and the radioactivity measured.

Another data set deals with MiaPaCa cells. As to the kind of experiment: Growth of MiaPaCa cells measured by cell counts. The format is cell-based, human.
The conditions of data set [2]: in vivo; cited from earlier work.
A further data set has as its system GH release. Conditions: relative to somatostatin; cited from earlier work.
Data set [3] relates to human mammary cell line MDA-MB-231. Conditions: at 10 »g dose; cited from earlier work.

Consider `N[C@@H](Cc1ccc(N(CCCl)CCCl)cc1)C(=O)O` [Melphalan, 4-[bis{2-chloroethyl}amino]-phenylalanine], for which the “% inhibition of ³H-thymidine incorp.” value in data set [1] (Dose 10⁻⁶ M) came out at 20%; in data set [1] (Dose 10⁻⁷ M), 18%. Also, the “% Decrease in cell number” value in the data set with MiaPaCa cells (Dose 10⁻⁶ M) is 29** %; in the data set on MiaPaCa cells (Dose 10⁻⁷ M), 1%; in the data set on MiaPaCa cells (Dose 10⁻⁸ M) it was 1%.

Consider `C[C@H](N)C(=O)NCC(=O)N[C@H]1CSSC[C@@H](C(=O)O)NC(=O)[C@H](CO)NC(=O)[C@H]([C@@H](C)O)NC(=O)[C@H](Cc2ccccc2)NC(=O)[C@H]([C@@H](C)O)NC(=O)[C@H](CCCCN)NC(=O)[C@H](Cc2c[nH]c3ccccc23)NC(=O)[C@H](Cc2ccccc2)NC(=O)[C@H](Cc2ccccc2)NC(=O)[C@H](CC(N)=O)NC(=O)[C@H](CCCCN)NC1=O` [SS-14], for which the half-life in circulation entry in data set [2] is reported as “about 3 min”.

For D-Phe-Cys-Tyr-D-Trp-Lys-Val-Cys-Thr-NH₂, the “times more potent than somatostatin in test for inhibition of GH release” value in the data set on GH release is “more than 100 times”.

Consider “[dF]CY[dW]KVCW-NH2 (cysteine pairing not given here)”, for which, in the data set with GH release, the “times more potent than somatostatin in test for inhibition of GH release” value was “more than 100 times”.

On to “pGlu-His-Trp-Ser-Tyr-D-Lys[Ahx-A₂bu(SAL)₂(Cu)]-Leu-Arg-Pro-Gly-NH₂”, for which the “inhibits the [³H]thymidine incorporation into DNA” value in data set [3] was 87%.
